The values that follow come from patent EP3360539A1, “PHARMACEUTICAL FORMULATION” (SapioTec GmbH, priority 2017, dated 2018).

For orientation: solubility (thermodynamic) means solubility found after equilibrating the solid with the medium.

≈ marks a conversion by molar mass, not a printed value.

The conditions of data set [1]: in HPBCD (10%); Fuchs et al. 2014; cited from earlier work.
The conditions of data set [2]: pH 9.

For `O=C1CN(/N=C/c2ccc(-c3ccc([N+](=O)[O-])cc3)o2)C(O)=N1` [Dantrolen-Natrium], the “Konzentration des gelösten Dantrolens in Lösung” value in data set [1] was 0,137 mg/ml. Further, the Löslichkeit entry in data set [2] was “bemerkenswerte Steigerung der Löslichkeit”. The thermodynamic solubility at 24 h came out at 15.6 mg/mL (≈ 49.6 mM) in “physchem” (25% hpbcd in deionized water, Gelöstes Dantrolen-Natrium); 16 mg/mL (≈ 50.9 mM) in the data set “physchem” (25% hpbcd in deionized water, pH 9, Gelöstes Dantrolen-Natrium); 14.4 mg/mL (≈ 45.8 mM) in the data set “physchem” (25% hpbcd, 1% tris, water, pH 9, Gelöstes Dantrolen-Natrium); 9.5 mg/mL (≈ 30.2 mM) in the data set “physchem” (water, 25% hpbcd, 2% glycerol, pH 9, organic solvent or mixture, Gelöstes Dantrolen-Natrium); 8.5 mg/mL (≈ 27 mM) in “physchem” (water, 25% hpbcd, arginine, pH 9, Gelöstes Dantrolen-Natrium); 3.6 mg/mL (≈ 11.5 mM) in the data set “physchem” (water, 25% hpbcd, edta, pH 9, Gelöstes Dantrolen-Natrium). In addition, in “physchem” (water, 25% hpbcd, lysine, pH 9, Gelöstes Dantrolen-Natrium), the thermodynamic solubility at 24 h came to 15.7 mg/mL (≈ 50 mM).
